In patent publication US20130254944A1, “Herbicide Tolerant Soybeans and Methods of Use” (PIONEER HI BRED INTERNATIONAL INC, priority 2012, published 2013):

Legend:
Type in all cases: in vivo
wild type soybean = experiment: Greenhouse postemergence test of ALS-inhibiting herbicides, wild type soybean
Method: (§1) Soybean lines having wild type als1 & 2 genes, the Als1 mutation, the Als2 mutation, or both the Als1 and Als2 mutations were evaluated for their response to various herbicides. Two seeds from each line were planted into 4-inch pots containing Redi-Earth potting mix (Sun Gro Horticulture Canada Ltd. 52130 RR65, Seba Beach, Alberta TOE 2B0), with two replications planted for each treatment. Pots were placed in flats at 15 pots/flat, and the resulting plants were grown in a greenhouse environment supplemented with lighting (16 hr photoperiod) for the duration of the test. Selected herbicides representing the mode of action that inhibits the acetolactate synthase enzyme, also known as the acetohydroxyacid synthase enzyme, were applied postemergence to soybean when soybean plants were at the V2 growth stage, which is the stage at which the first two trifoliolate leaves were expanded.
(§2) Eleven active ingredients representing the five chemical families with herbicidal activity on the acetolactate synthase enzyme were tested. These herbicides can cause a phytotoxic response in wild type soybean plants. The five chemical families tested were sulfonylaminocarbonyltriazolinone (also known as triazolinone), imidazolinone, sulfonylurea, pyrimidinylthiobenzoate, and triazolopyrimidine. Application rates ranged from 0.5 times to eight times the currently labeled application rate for each active ingredient with spray application volume at 30 gallons/acre. The application rates tested were 0.5×, 1×, 2×, 4× and 8× the label rate for each herbicide. Herbicidal active ingredients were applied as formulated materials dispersed in water containing 0.25% nonionic surfactant (Trend® 90).
(§3) The test was evaluated by visually scoring plant phenotype 14 days after the herbicides were applied. Controls consisted of soybean plants of the same variety that received no herbicide treatments for each of all the varieties tested. Soybean response was recorded on a zero to 100 visual scale in which zero is no phytotoxic response and 100 is plant death fourteen days after the herbicides were applied. Soybean response (percent phytotoxicity) to postemergence applications of herbicides inhibiting the acetolactate synthase enzyme test results are shown in Table 1.

[1] = tested on: soybean having the Als1 mutation; experiment: Greenhouse postemergence test of ALS-inhibiting herbicides, soybean with Als1 mutation; details: for phytotoxic response (in words), Als1: rates 0.5x to 8x the label rate; for Avg response (% phytotoxicity), Trait Als1: Table 2
Method: as §1, §2, §3
(§4) Results in Table 1 were evaluated using the isobole method for analyzing interactions. […] Here the biologically active agents that are being assessed for interaction (synergy) are gene mutations in soybean. The effectiveness of the genes in providing improved tolerance to ALS-inhibiting herbicides was assessed by applying increasing doses of herbicides to each soybean line with its mutation(s).
(§5) An isobole reduces a dose response surface in three dimensional space to a two dimensional plot by fixing a defined response level (e.g., 50% response). The isobole plot is a graph in the Cartesian plane with a straight line connecting the isoeffective rates of the individual components of the combination. This straight line represents expected responses for zero interactive combinations. The isoeffective rate used to create the isobole is often the EC50, the rate estimated to elicit 50% response, but other ECx values can be used. Since the isobole method is based on the potency of the components of the combination, an experimental design testing a range of rates expected to elicit the full range of responses (e.g., 0 to maximum response) is best. (Ferry et al. (2005) 2005 Conference on Applied Statistics in Agriculture Proceedings pp 33-50, Manhattan, Kans., Kansas State Univ.; Green and Streibig (1993) Herbicide Mixtures, pp 117-134 in Herbicide Bioassays, Streibig and Hudsk Eds, CRC, Boca Raton, Fla.).
(§6) Loglogistic dose response curves were fit to percent phytotoxicity response data using log 10 of dose (McCullagh and Nelder (1989) Generalized Linear Models, Chapman & Hall, London). Curves were fit using the logit link with normal errors. […]

[2] = tested on: soybean having the Als2 mutation; experiment: Greenhouse postemergence test of ALS-inhibiting herbicides, soybean with Als2 mutation; details: for phytotoxic response (in words), Als2: rates 0.5x to 8x the label rate; for Avg response (% phytotoxicity), Trait Als2: Table 2
Method: as §1, §2, §3, §4, §5, §6

[3] = tested on: soybean having both the Als1 and Als2 mutations; experiment: Greenhouse postemergence test of ALS-inhibiting herbicides and isobole analysis, soybean with Als1 and Als2 mutations; details: for phytotoxic response (in words), Als1+Als2: rates 0.5x to 8x the label rate; for Avg response (% phytotoxicity), Trait Als1 + Als2: Table 2
Method: as §1, §2, §3, §4, §5, §6

[4] = 8.75 g ai/ha postemergence at V2, scored 14 days after application
[5] = 17.5 g ai/ha postemergence at V2, scored 14 days after application
[6] = 35 g ai/ha postemergence at V2, scored 14 days after application
[7] = 70 g ai/ha postemergence at V2, scored 14 days after application
[8] = 140 g ai/ha postemergence at V2, scored 14 days after application
[9] = 280 g ai/ha postemergence at V2, scored 14 days after application
[10] = rate of herbicide estimated to cause 10% phytotoxic response, loglogistic fit
[11] = rate of herbicide estimated to cause 50% phytotoxic response, loglogistic fit

COc1cc(Cl)nc(NC(=O)NS(=O)(=O)c2ccccc2C(=O)O)n1 [Chlorimuron]
Soybean response (percent phytotoxicity), Wild type (wild type soybean; [4]): 0% | Soybean response (percent phytotoxicity), Wild type (wild type soybean; [5]): 5% | Soybean response (percent phytotoxicity), Wild type (wild type soybean; [6]): 20% | Soybean response (percent phytotoxicity), Wild type (wild type soybean; [7]): 35% | Soybean response (percent phytotoxicity), Wild type (wild type soybean; [8]): 45% | Soybean response (percent phytotoxicity), Als1 [1, 4]: 0% | Soybean response (percent phytotoxicity), Als1 [1, 5]: 0% | Soybean response (percent phytotoxicity), Als1 [1, 6]: 0% | Soybean response (percent phytotoxicity), Als1 [1, 7]: 0% | Soybean response (percent phytotoxicity), Als1 [1, 8]: 0% | phytotoxic response (in words), Als1 [1]: did not cause any phytotoxic response | Soybean response (percent phytotoxicity), Als2 [2, 4]: 0% | Soybean response (percent phytotoxicity), Als2 [2, 5]: 0% | Soybean response (percent phytotoxicity), Als2 [2, 6]: 0% | Soybean response (percent phytotoxicity), Als2 [2, 7]: 0% | Soybean response (percent phytotoxicity), Als2 [2, 8]: 0% | phytotoxic response (in words), Als2 [2]: did not cause any phytotoxic response | Soybean response (percent phytotoxicity), Als1 + Als2 [3, 4]: 0% | Soybean response (percent phytotoxicity), Als1 + Als2 [3, 5]: 0% | Soybean response (percent phytotoxicity), Als1 + Als2 [3, 6]: 0% | Soybean response (percent phytotoxicity), Als1 + Als2 [3, 7]: 0% | Soybean response (percent phytotoxicity), Als1 + Als2 [3, 8]: 0% | phytotoxic response (in words), Als1+Als2 [3]: did not cause any phytotoxic response

CCOc1nc(F)cc2nc(S(=O)(=O)Nc3c(Cl)cccc3C(=O)OC)nn12 [Cloransulam methyl]
Soybean response (percent phytotoxicity), Wild type (wild type soybean; [4]): 0% | Soybean response (percent phytotoxicity), Wild type (wild type soybean; [5]): 0% | Soybean response (percent phytotoxicity), Wild type (wild type soybean; [6]): 0% | Soybean response (percent phytotoxicity), Wild type (wild type soybean; [7]): 5% | Soybean response (percent phytotoxicity), Wild type (wild type soybean; [8]): 15% | Soybean response (percent phytotoxicity), Als1 [1, 4]: 0% | Soybean response (percent phytotoxicity), Als1 [1, 5]: 0% | Soybean response (percent phytotoxicity), Als1 [1, 6]: 0% | Soybean response (percent phytotoxicity), Als1 [1, 7]: 0% | Soybean response (percent phytotoxicity), Als1 [1, 8]: 0% | phytotoxic response (in words), Als1 [1]: did not cause any phytotoxic response | Soybean response (percent phytotoxicity), Als2 [2, 4]: 0% | Soybean response (percent phytotoxicity), Als2 [2, 5]: 0% | Soybean response (percent phytotoxicity), Als2 [2, 6]: 0% | Soybean response (percent phytotoxicity), Als2 [2, 7]: 0% | Soybean response (percent phytotoxicity), Als2 [2, 8]: 0% | phytotoxic response (in words), Als2 [2]: did not cause any phytotoxic response | Soybean response (percent phytotoxicity), Als1 + Als2 [3, 4]: 0% | Soybean response (percent phytotoxicity), Als1 + Als2 [3, 5]: 0% | Soybean response (percent phytotoxicity), Als1 + Als2 [3, 6]: 0% | Soybean response (percent phytotoxicity), Als1 + Als2 [3, 7]: 0% | Soybean response (percent phytotoxicity), Als1 + Als2 [3, 8]: 0% | phytotoxic response (in words), Als1+Als2 [3]: did not cause any phytotoxic response

COc1nn(C(=O)NS(=O)(=O)c2ccccc2OC(F)(F)F)c(=O)n1C [Flucarbazone]
Soybean response (percent phytotoxicity), Wild type (wild type soybean; [5]): 60% | Soybean response (percent phytotoxicity), Wild type (wild type soybean; [6]): 80% | Soybean response (percent phytotoxicity), Wild type (wild type soybean; [7]): 90% | Soybean response (percent phytotoxicity), Wild type (wild type soybean; [8]): 98% | Soybean response (percent phytotoxicity), Wild type (wild type soybean; [9]): 98% | Soybean response (percent phytotoxicity), Als1 [1, 5]: 0% | Avg response (% phytotoxicity), Trait Als1 ([1]; 17.5 g ai/ha): 0% | Soybean response (percent phytotoxicity), Als1 [1, 6]: 0% | Avg response (% phytotoxicity), Trait Als1 ([1]; 35 g ai/ha): 0% | Soybean response (percent phytotoxicity), Als1 [1, 7]: 5% | Avg response (% phytotoxicity), Trait Als1 ([1]; 70 g ai/ha): 5% | Soybean response (percent phytotoxicity), Als1 [1, 8]: 10% | Avg response (% phytotoxicity), Trait Als1 ([1]; 140 g ai/ha): 10% | Soybean response (percent phytotoxicity), Als1 [1, 9]: 10% | Avg response (% phytotoxicity), Trait Als1 ([1]; 280 g ai/ha): 10% | EC10, Als1 [1, 10]: 230.45 g ai/ha | Soybean response (percent phytotoxicity), Als2 [2, 5]: 5% | Avg response (% phytotoxicity), Trait Als2 ([2]; 17.5 g ai/ha): 5% | Soybean response (percent phytotoxicity), Als2 [2, 6]: 15% | Avg response (% phytotoxicity), Trait Als2 ([2]; 35 g ai/ha): 30% | Soybean response (percent phytotoxicity), Als2 [2, 7]: 20% | Avg response (% phytotoxicity), Trait Als2 ([2]; 70 g ai/ha): 50% | Soybean response (percent phytotoxicity), Als2 [2, 8]: 25% | Avg response (% phytotoxicity), Trait Als2 ([2]; 140 g ai/ha): 55% | Soybean response (percent phytotoxicity), Als2 [2, 9]: 30% | Avg response (% phytotoxicity), Trait Als2 ([2]; 280 g ai/ha): 60% | EC10, Als2 [2, 10]: 8.14 g ai/ha | Soybean response (percent phytotoxicity), Als1 + Als2 [3, 5]: 0% | Avg response (% phytotoxicity), Trait Als1 + Als2 ([3]; 17.5 g ai/ha): 0% | Soybean response (percent phytotoxicity), Als1 + Als2 [3, 6]: 0% | Avg response (% phytotoxicity), Trait Als1 + Als2 ([3]; 35 g ai/ha): 0% | Soybean response (percent phytotoxicity), Als1 + Als2 [3, 7]: 0% | Avg response (% phytotoxicity), Trait Als1 + Als2 ([3]; 70 g ai/ha): 0% | Soybean response (percent phytotoxicity), Als1 + Als2 [3, 8]: 0% | Avg response (% phytotoxicity), Trait Als1 + Als2 ([3]; 140 g ai/ha): 0% | Soybean response (percent phytotoxicity), Als1 + Als2 [3, 9]: 0% | Avg response (% phytotoxicity), Trait Als1 + Als2 ([3]; 280 g ai/ha): 0% | EC10, Als1 + Als2 [3, 10]: >280 g ai/ha

CC(C)C1(C)N=C(c2ncccc2C(=O)O)NC1=O (centres unmarked) [Imazapyr]
Soybean response (percent phytotoxicity), Wild type (wild type soybean; [4]): 10% | Soybean response (percent phytotoxicity), Wild type (wild type soybean; [5]): 40% | Soybean response (percent phytotoxicity), Wild type (wild type soybean; [6]): 75% | Soybean response (percent phytotoxicity), Wild type (wild type soybean; [7]): 90% | Soybean response (percent phytotoxicity), Wild type (wild type soybean; [8]): 98% | Soybean response (percent phytotoxicity), Als1 [1, 4]: 0% | Avg response (% phytotoxicity), Trait Als1 ([1]; 8.75 g ai/ha): 0% | Soybean response (percent phytotoxicity), Als1 [1, 5]: 10% | Avg response (% phytotoxicity), Trait Als1 ([1]; 17.5 g ai/ha): 10% | Soybean response (percent phytotoxicity), Als1 [1, 6]: 45% | Avg response (% phytotoxicity), Trait Als1 ([1]; 35 g ai/ha): 45% | Soybean response (percent phytotoxicity), Als1 [1, 7]: 80% | Avg response (% phytotoxicity), Trait Als1 ([1]; 70 g ai/ha): 80% | Soybean response (percent phytotoxicity), Als1 [1, 8]: 98% | Avg response (% phytotoxicity), Trait Als1 ([1]; 140 g ai/ha): 98% | EC50, Als1 [1, 11]: 38.86 g ai/ha | Soybean response (percent phytotoxicity), Als2 [2, 4]: 5% | Avg response (% phytotoxicity), Trait Als2 ([2]; 8.75 g ai/ha): 5% | Soybean response (percent phytotoxicity), Als2 [2, 5]: 20% | Avg response (% phytotoxicity), Trait Als2 ([2]; 17.5 g ai/ha): 20% | Soybean response (percent phytotoxicity), Als2 [2, 6]: 25% | Avg response (% phytotoxicity), Trait Als2 ([2]; 35 g ai/ha): 25% | Soybean response (percent phytotoxicity), Als2 [2, 7]: 50% | Avg response (% phytotoxicity), Trait Als2 ([2]; 70 g ai/ha): 50% | Soybean response (percent phytotoxicity), Als2 [2, 8]: 55% | Avg response (% phytotoxicity), Trait Als2 ([2]; 140 g ai/ha): 55% | EC50, Als2 [2, 11]: 93.91 g ai/ha | Soybean response (percent phytotoxicity), Als1 + Als2 [3, 4]: 0% | Avg response (% phytotoxicity), Trait Als1 + Als2 ([3]; 8.75 g ai/ha): 0% | Soybean response (percent phytotoxicity), Als1 + Als2 [3, 5]: 0% | Avg response (% phytotoxicity), Trait Als1 + Als2 ([3]; 17.5 g ai/ha): 0% | Soybean response (percent phytotoxicity), Als1 + Als2 [3, 6]: 0% | Avg response (% phytotoxicity), Trait Als1 + Als2 ([3]; 35 g ai/ha): 0% | Soybean response (percent phytotoxicity), Als1 + Als2 [3, 7]: 40% | Avg response (% phytotoxicity), Trait Als1 + Als2 ([3]; 70 g ai/ha): 40% | Soybean response (percent phytotoxicity), Als1 + Als2 [3, 8]: 55% | Avg response (% phytotoxicity), Trait Als1 + Als2 ([3]; 140 g ai/ha): 55% | EC50, Als1 + Als2 [3, 11]: 112.81 g ai/ha
